Experimental data reported in patent US20210085801A1, “A[…] COPOLYMERS, […], AND METHODS FOR TREATING OR […] FAILURE” (CARDIOL THERAPEUTICS INC., priority 2017, published 2021).

Columns and labels:
[1] = In vitro release study (dialysis bag, 4% BSA); format: physicochemical; settings: dialysis bag in 300 mL 4% BSA, 37° C.
Procedure: An in vitro release study was performed to determine the in vitro release characteristic of free CBD and the above micelle encapsulated CBD formulations (Micellar CBD (DP 23) and d Micellar CBD (DP 15)).
Each of three formulations shown in Table 4 having equal concentrations of CBD were placed in separate Spectra/Por dialysis bags (molecular weight cut-off=12,000-14,000 g mol-1). The dialysis bags were sealed with clips and placed in a beaker with 300 mL 4% bovine serum albumin (BSA), then in a 37° C. shaker. At time 0 and 24 hours, the volume within each bag was measured, and a sample of each solution was taken from inside the dialysis bag and quantified by HPLC. The protocol that was used is described in Aliabadi et al, Journal of Controlled Release (2005) 104 (2), 301-311, which protocol is incorporated herein by reference.

[2] = Pharmacokinetic animal study, subcutaneous injection; settings: SC, single dose 10 mg/kg, rats, plasma CBD
Procedure: Cannulated adult male Sprague-Dawley rats were used for the pharmacokinetic experiments.
Rats were divided into 2 groups (n=4/group). Groups 1 and 2 received CBD either encapsulated in PEO-PBCL23 (referred to herein as Micellar CBD (DP 23)) or in free form (CBD dissolved in polyethylene glycol 400 (also referred to as PEG 400)). The administration was by way of subcutaneous injection in the right flank. A single dose of 10 mg/kg was administered to the rats of all groups.
Serial blood samples (200 μL) were collected using jugular vein catheters prior to CBD administration and at 0.25, 0.5, 0.75, 1, 2, 4, 6, 12 and 24, 48 and 72 hours post CBD administration. Plasma was separated (by using a centrifuge) from the samples and kept at −20° C. until it was analyzed for drug content.
100 μL of plasma samples were analyzed for CBD content as follows. The samples were spiked with internal standard (CBD d3 1 μg/mL) and 400 μL of cold acetonitrile was added to each sample. The mixture was vortexed for 1 minute and then 400 μL of water was added and the resulting mixture was further vortexed for 1 minute. Then 4 mL n-Hexane was added and the resulting mixture further vortexed for 5 minutes. The samples were centrifuged at 1160×g for 15 minutes and the organic phase layers were separated and transferred to clean tubes and evaporated to dryness. The residue was then analyzed for CBD content using a liquid chromatography-mass spectrometry (LC-MS) method involving the use of a Waters Quattro Micro triple quadrupole mass spectrometer. The residue samples were ran in MRM mode using the 315 to 193 transition for CBD, 318 to 196 for Cannabidiol-D3 solution and 311 to 223 for Cannabinol (CBN). A C18 Agilent Poroshell 120 EC column (2.1×50 mm; 2.7 μm particles) was used. The mobile phase consisted of 0.1% formic acid in HPLC-grade water (Solution A) and 0.1% formic acid in HPLC-grade acetonitrile (Solution B). A gradient elution was programmed to co33mmence with 40% Solution B for post-injection followed by gradual increase in 3 min. of Solution B to 95%. […] The flow rate was 0.3 mL/min. and 2 μL was injected. The lowest limit of quantification was set at 10 ng/mL.
The total amount of CBD that entered the bloodstream (AUC0-t; 72 h) was calculated using the trapezoidal rule from 0 to the last measured plasma concentration (Clast). The terminal elimination rate constant (β) was estimated using the linear least square regression of the log-linear phase of the concentration-time. Cmax and Tmax were the highest observed concentration and corresponding sampling time point.

SMILES: C=C(C)[C@@H]1CCC(C)=C[C@H]1c1c(O)cc(CCCCC)cc1O [Free-CBD, Cannabidiol]
- % CBD released after 24 hours [1]: rapid release
- % CBD released after 24 hours ([1]; listed as Free-CBD dissolved in acetonitrile): 70.65%
- AUC0-6 [2]: 209.45 ± 210.52 ng·h/mL
- AUC0-72 h [2]: 687.12 ± 217.39 ng·h/mL
- Cmax [2]: 94 ± 86.27 ng/mL
- tmax [2]: 9 ± 10.13 h
